Patent US9132138B2, “Method for the treatment of multiple sclerosis” (CASI Pharmaceuticals, Inc., priority 2012, dated 2015)

Columns and labels:
[1] = system: LPS-induced TNFα production; experiment: Serum TNFα in mice injected with LPS; type: in vivo; conditions: 2ME2-pretreated mice injected with LPS
[2] = system: T cells; experiment: T cell activation markers CD25 and CD69 by flow cytometry; type: cell-based, C57/BL6 mice; conditions: anti-CD3/28 or PMA/iono
Protocol: FIGS. 2A-2E, show proliferation and activation of T cells are inhibited by 2ME2. FIG. 2A, CD4^+ T cells were pre-treated with the indicated concentrations of 2ME2 and stimulated with plate-bound anti-CD3/28 or PMA/iono. Proliferation was assayed 24 hours (left) or 48 hours (right) later by 3H-thymidine incorporation. FIG. 2B, CD4^+ and CD8^+ T cells were stimulated with anti-CD3/28 in the presence of increasing concentrations of 2ME2. CD25 expression was assessed at 6 hours or 24 hours post-stimulation by flow cytometry. FIG. 2C, Quantification of CD25 expression in purified CD4^+ T cells pre-treated with increasing concentrations of 2ME2, and stimulated with anti CD3/28 or PMA/iono for 6 or 24 hours. […] Viability was determined 24 hours or 48 hours post-stimulation by flow cytometry. […] Proliferation was determined 24 hours or 48 hours later by 3H-thymidine incorporation. […]
(§1) Purified CD4^+ T cells were stimulated with plate-bound anti-CD3 (clone 2C11, BD, 10 ng/ml) plus anti-CD28 (clone 37.51, BD, 100 ng/ml). […] CD25 and CD69 expression was determined by flow cytometry (FACSCanto II, BD) and analyzed using FloJo software (Treestar Inc). Proliferation was assessed by 3H-thymidine incorporation. Viability and upregulation of cell surface markers on activated T cells were assessed by flow cytometry using Annexin V and propridium iodide. […]

[3] = system: T cells; experiment: T cell viability by flow cytometry (Annexin V and propidium iodide); type: cell-based, C57/BL6 mice
Protocol: FIGS. 2A-2E, show proliferation and activation of T cells are inhibited by 2ME2. FIG. 2A, CD4^+ T cells were pre-treated with the indicated concentrations of 2ME2 and stimulated with plate-bound anti-CD3/28 or PMA/iono. Proliferation was assayed 24 hours (left) or 48 hours (right) later by 3H-thymidine incorporation. FIG. 2B, CD4^+ and CD8^+ T cells were stimulated with anti-CD3/28 in the presence of increasing concentrations of 2ME2. CD25 expression was assessed at 6 hours or 24 hours post-stimulation by flow cytometry. FIG. 2C, Quantification of CD25 expression in purified CD4^+ T cells pre-treated with increasing concentrations of 2ME2, and stimulated with anti CD3/28 or PMA/iono for 6 or 24 hours. FIG. 2D, T cells were pretreated with the indicated doses of 2ME2 and left untreated (left) or stimulated using plate-bound anti-CD3/28 (right). Viability was determined 24 hours or 48 hours post-stimulation by flow cytometry. FIG. 2E, human PBMC were activated with anti-human CD3/28 in the presence of increasing concentrations of 2ME2. Proliferation was determined 24 hours or 48 hours later by 3H-thymidine incorporation. Data are mean±SD of triplicate determinations and are representative of three separate donors. For FIG. 2A and FIG. 2E, data shown are the mean±SD of triplicate determinations, and are representative of 3 experiments. For FIG. 2B and FIG. 2C data is representative of two experiments.
Cells were pre-incubated with various concentrations of 2ME2 (Entremed) or vehicle (DMSO) for 30 minutes at 37° C.
as §1

[4] = system: Th17 cells; experiment: Intracellular cytokine staining of in vitro differentiated Th17 cells; type: cell-based, C57/BL6 mice
[5] = system: SEB-induced cytokine production; set-up: species or system C57/BL6 mice; conditions: mouse, in vivo
[6] = system: NF-κB; experiment: Gaussia luciferase reporter assay in Jurkat cells; type: cell-based; conditions: anti-CD3/28, 5 hours
Protocol: (§2) FIG. 4A, purified T cells pre-treated with 2ME2 (50 μM) were stimulated with PMA/iono for the indicated times. Whole cell lysates were subjected to immunoblotting to detect the indicated proteins. FIG. 4B, nuclear lysates were analyzed by EMSA to detect DNA binding to NF-κB or AP-1. FP, free probe. FIG. 4C, purified T cells or B cells were pre-treated with vehicle (−) or 50 μM 2ME2 (+) and were stimulated with PMA/iono for 30 or 60 minutes (left), or with anti-CD3/28 or anti-IgM/CD40 for 24 hours (right). Nuclear fractions of lymphocytes were analyzed by immunoblotting to detect nuclear translocation of NFATc1. Lamin A, nuclear protein loading control. NS; non-specific band. […]
(§3) Luciferase Assays were performed using Jurkat cells harboring a stably integrated Gaussia-luciferase reporter gene under the control of NF-κB or NFAT binding sites (Termed NFAT/NF-κB-GLuc reporter Jurkat). Gaussia luciferase contains a secretion peptide sequence mediating quantitative secretion of active enzyme into the surrounding medium. […] Luciferase activity was measured in 96-well plates using a Orion L microplate Luminometer (Berthold Detection Systems) with an integration time of 3.0 seconds. In parallel, cell viability was determined using the CellTiter-Glo® Luminescent Cell Viability Assay (Promega) and normalized Gluc activity was calculated as the ratio between Gluc activity and cell viability counts.

[7] = system: NFAT; experiment: Gaussia luciferase reporter assay in Jurkat cells; type: cell-based; conditions: anti-CD3/28, 5 hours
Protocol: as §2, §3

[8] = system: human PBL; experiment: CD25 expression and cytokine production by CD3/28-stimulated human PBL; type: cell-based
Protocol: Purified CD4^+ T cells were stimulated with plate-bound anti-CD3 (clone 2C11, BD, 10 ng/ml) plus anti-CD28 (clone 37.51, BD, 100 ng/ml). Purified B220+ B cells were stimulated with anti-IgM (Jackson, 5 μg/ml), anti-CD40 (clone 3/20, BD, 5 μg/ml) or LPS (Sigma, 20 μg/ml) for the times indicated in FIG. 3. CD25 and CD69 expression was determined by flow cytometry (FACSCanto II, BD) and analyzed using FloJo software (Treestar Inc). Proliferation was assessed by 3H-thymidine incorporation. Viability and upregulation of cell surface markers on activated T cells were assessed by flow cytometry using Annexin V and propridium iodide. Human Peripheral blood mononuclear cells (PBMC) were isolated using Mono-Poly Resolving Medium (MP Biomedical) according to the manufacturer's protocols and activated with anti-CD3 (clone UCHT1) and anti-CD28 (clone CD28.2).

[9] = system: activated T cells; experiment: Quantitative real time PCR of mRNAs in activated T cells; type: cell-based, C57/BL6 mice

## COc1cc2c(cc1O)CC[C@@H]1[C@@H]2CC[C@]2(C)[C@@H](O)CC[C@@H]12 [2ME2, 2-Methoxyestradiol]
[1]
  serum TNFα levels: no reduction
[2]
  up-regulation of CD25: blocked up-regulation
  up-regulation of CD69: blocked up-regulation
[3]; 24 hours
  apoptosis in activated T cells: none was apparent
  apoptosis in un-stimulated T cells: only a modest 2ME2-dependent increase in apoptosis
[3]; 48 hours post-stimulation
  viability of activated T cells: reduced viability
[4]; 50 μM 2ME2, PMA/iono 6 hours, vehicle 23.2%
  Th17 cells positive for IL-17: 7.3%
[4]; PMA/iono 6 hours, vehicle 9.1%
  production of IFNγ in Th17 cells (positive cells): 7.3%
[5]
  serum IL-6: significantly less
  serum TNFα: significantly less
[6]
  NF-κB-dependent transcriptional activity (normalized luciferase activity): no effect
[7]
  transcriptional activation of NFAT via TCR ligation (normalized luciferase activity): dramatically inhibited
[8]; CD3/28-stimulated human PBL
  IFNγ production: inhibited
  IL-2 production: inhibited
  IL-17A production: inhibited
[8]; human PBL
  anti-CD3/28-induced expression of CD25 on CD4+ and CD8+ T cells: inhibited
[9]; 2ME2 50 μM, anti-CD3/28
  induction of CD25 mRNA: decreased the induction
  induction of CD44 mRNA: decreased the induction
  induction of IFNγ mRNA: decreased the induction
  induction of IL-2 mRNA: decreased the induction
  induction of TNFα mRNA: decreased the induction
[9]; 3 hours post stimulation
  mRNA levels of GATA3: normal induction
[9]; after 3 hours and 24 hours anti-CD3/28 stimulation
  up-regulation of IL-17 mRNA: blocking up-regulation
[9]; in response to TCR ligation
  upregulation of IL-4 mRNA: inhibited
[9]; re-stimulation after 5 days activation
  IL-17 production on re-stimulation: blocked
